Source: patent US20160355483A1, “COMPOUND BINDING TO PPARG BUT NOT ACTING AS PROMOTER AND PHARMACEUTICAL COMPOSITION FOR TREATING PPARG-RELATED DISEASES CONTAINING SAME AS ACTIVE INGREDIENT” (Hyundai Pharm Co., Ltd., priority 2014, published 2016)
Entries after “also recorded” stand apart in the source; their conditions may differ.

Experiments:
CYP 2C19 = target: T1, CYP 2C19 (Homo sapiens, UniProt P33261); experiment: CYP (cytochrome P450)-suppressing effect, BD GENTEST kit; assay type: in vitro ADME
T1 construct: purchased BD GENTEST 459400
Description: (§1) To evaluate the CYP (cytochrome P450)-suppressing activity of the compounds prepared in the examples of the invention, the following experiment was performed.
(§2) The analysis of CYP1A2, 2C19, and 3A4 suppressing activity was performed by using a BD GENTEST (459100, 459400, and 459500) kit, and the analysis of CYP 2C9- and 2D6-suppressing activity was performed by using an Invitrogen (P2861 and P2862) kit.
(§3) When the BD GENTEST kit was used, the compounds of the present invention were diluted in acetonitrile at the final concentration of 50×. The NADPH-Cofactor mix was prepared by diluting the Cofactor, G6PDH, and control protein provided by the kit in DW according to the instructed concentration. 4 μL of the compound of the example (50×) was mixed with 96 μL of NADPH-Cofactor mix in a 96-well plate, followed by pre-incubation in a 37° C. incubator for 10 minutes.
(§4) The enzyme/substrate mixture was diluted in the buffer (0.5 M potassium phosphate, pH 7.4) provided by the kit according to the instructed concentration. Each CYP450 enzyme substrate was diluted in DW at a desired concentration respectively according to the corresponding types of CYP450. 100 μL of the enzyme/substrate mixture was loaded in the plate when the pre-incubation had been completed, followed by reaction in a 37° C. incubator for 15 minutes (1A2) and 30 minutes (3A4 and 2C19). Upon completion of the reaction, the mixture was transferred to a white plate, and the fluorescent wavelength was measured with a microplate reader (1A2, 2C19 excitation 410 nm, emission 460 nm; 3A4, excitation 409 nm, emission 530 nm).
(§5) The test results were calculated by the following formula:
(§6) (1−(fluorescence value of the test material/fluorescence value of the vehicle))×100%.

CYP 3A4 = target: T2, CYP 3A4 (Homo sapiens, UniProt P08684); experiment: as above; assay type: in vitro ADME
T2 construct: purchased BD GENTEST 459500
Description: as §1, §2, §3, §4, §5, §6

CYP1A2 = target: T3, CYP1A2 (Homo sapiens, UniProt P05177); experiment: as above; assay type: in vitro ADME
T3 construct: purchased BD GENTEST 459100
T3 sequence (P05177 1-516): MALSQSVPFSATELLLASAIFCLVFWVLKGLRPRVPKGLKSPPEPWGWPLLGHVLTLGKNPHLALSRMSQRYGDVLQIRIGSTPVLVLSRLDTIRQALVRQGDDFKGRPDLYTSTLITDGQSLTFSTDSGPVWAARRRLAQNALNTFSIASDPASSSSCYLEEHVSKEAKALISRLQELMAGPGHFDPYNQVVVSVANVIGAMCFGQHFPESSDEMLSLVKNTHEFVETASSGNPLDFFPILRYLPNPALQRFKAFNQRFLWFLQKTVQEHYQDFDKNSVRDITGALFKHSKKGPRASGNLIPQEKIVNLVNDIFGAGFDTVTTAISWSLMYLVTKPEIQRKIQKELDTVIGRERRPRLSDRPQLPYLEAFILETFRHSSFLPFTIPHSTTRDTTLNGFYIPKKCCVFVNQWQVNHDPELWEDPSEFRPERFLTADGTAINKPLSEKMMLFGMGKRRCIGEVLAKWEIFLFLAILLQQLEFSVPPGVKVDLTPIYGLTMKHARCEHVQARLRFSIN
Description: as §1, §2, §3, §4, §5, §6

CYP 2C9 = target: T4, CYP 2C9 (Homo sapiens, UniProt P11712); experiment: CYP (cytochrome P450)-suppressing effect, Invitrogen Vivid kit; assay type: in vitro ADME
T4 construct: purchased Invitrogen P2861
Description: as §1, §2
(§7) When the Invitrogen kit was used, the compounds of the present invention were diluted in Vivid CYP450 reaction buffer (1×) at the final concentration of 2.5×. The P450 BACULOSOMES sample and Regeneration system (100×) were diluted in Vivid CYP450 reaction buffer (1×) at different proper concentrations. 80 μL of the compound of the invention (2.5×) and […] of the diluted P450 BACULOSOMES sample mixture were mixed in a U-bottom 96-well plate, followed by pre-incubation for 10 minutes. Vivid CYP450 Substrate and NADP+ (100×) were diluted in Vivid CYP450 reaction buffer (1×) at a desired concentration, respectively, according to their corresponding types of CYP450 and substrates. 20 μL of Substrate-NADP+ mix was loaded in the plate when the pre-incubation had been completed, followed by reaction for 1 hour. Upon completion of the reaction, the reaction mixture was transferred in a white plate and fluorescent wavelength was measured with a microplate reader (2C9 excitation 415 nm, emission 460 nm, 2D6 excitation 400 nm, emission 502 nm).
as §5, §6

CYP 2D6 = target: T5, CYP 2D6 (Homo sapiens, UniProt P10635); experiment: as above; assay type: in vitro ADME
T5 construct: purchased Invitrogen P2862
Description: as §1, §2, §7, §5, §6

[1] = target: T6, PPARG (peroxisome proliferator activated receptor-gamma), GST-PPARG-LBD (Homo sapiens, UniProt P37231); experiment: LanthaScreen TR-FRET PPARG Competitive Binding Assay; set-up: key: “+” indicates the degree of the binding activity, and as the number of “+” increases, the binding activity is stronger; ++: “+” indicates the degree of the binding activity, and as the number of “+” increases, the binding activity is stronger; +++: “+” indicates the degree of the binding activity, and as the number of “+” increases, the binding activity is stronger; ++++: “+” indicates the degree of the binding activity, and as the number of “+” increases, the binding activity is stronger; details: degree of binding activity
T6 construct: 15 μL of 5 nM GST-PPARG-LBD and 5 nM Tb-GST-antibody were added; purchased Invitrogen PV4894
T6 sequence (P37231 238-503 limits assumed): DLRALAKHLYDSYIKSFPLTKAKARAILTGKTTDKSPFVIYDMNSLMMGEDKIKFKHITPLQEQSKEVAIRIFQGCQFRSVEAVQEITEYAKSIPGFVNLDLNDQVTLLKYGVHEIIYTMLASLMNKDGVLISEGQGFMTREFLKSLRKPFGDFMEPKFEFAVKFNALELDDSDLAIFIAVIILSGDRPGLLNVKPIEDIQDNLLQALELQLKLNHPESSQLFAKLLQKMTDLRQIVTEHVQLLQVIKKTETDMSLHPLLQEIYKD
In short: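 Ratio of 518 nm to 488 nm time-resolved emission after a 1 h room-temperature incubation, in competition format with GST-PPARG ligand-binding domain. Values are expressed as 100% minus compound-to-vehicle ratio and related to rosiglitazone binding.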

[2] = test system: CYP isozymes 1A2, 2C9, 2C19, and 2D6; experiment: CYP suppression compared with comparative examples (Table 3); assay type: in vitro ADME; details: result in words
Description: as §1, §2, §7, §3, §4, §5, §6

T2 sequence (P08684 whole entry): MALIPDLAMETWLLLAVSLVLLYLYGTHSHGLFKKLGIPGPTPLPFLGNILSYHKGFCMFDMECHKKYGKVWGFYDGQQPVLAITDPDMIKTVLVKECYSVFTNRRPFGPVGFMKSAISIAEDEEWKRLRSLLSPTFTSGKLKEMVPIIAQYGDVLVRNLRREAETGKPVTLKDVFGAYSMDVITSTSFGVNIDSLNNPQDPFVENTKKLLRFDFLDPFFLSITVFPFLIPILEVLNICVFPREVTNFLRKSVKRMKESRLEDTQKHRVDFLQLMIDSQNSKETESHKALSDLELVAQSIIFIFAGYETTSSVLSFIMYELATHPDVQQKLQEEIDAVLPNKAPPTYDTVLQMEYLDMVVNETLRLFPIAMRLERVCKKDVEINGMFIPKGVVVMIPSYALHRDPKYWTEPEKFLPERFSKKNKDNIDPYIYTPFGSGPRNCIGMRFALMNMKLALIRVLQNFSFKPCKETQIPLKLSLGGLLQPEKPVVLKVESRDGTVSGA
T1 sequence (P33261 whole entry): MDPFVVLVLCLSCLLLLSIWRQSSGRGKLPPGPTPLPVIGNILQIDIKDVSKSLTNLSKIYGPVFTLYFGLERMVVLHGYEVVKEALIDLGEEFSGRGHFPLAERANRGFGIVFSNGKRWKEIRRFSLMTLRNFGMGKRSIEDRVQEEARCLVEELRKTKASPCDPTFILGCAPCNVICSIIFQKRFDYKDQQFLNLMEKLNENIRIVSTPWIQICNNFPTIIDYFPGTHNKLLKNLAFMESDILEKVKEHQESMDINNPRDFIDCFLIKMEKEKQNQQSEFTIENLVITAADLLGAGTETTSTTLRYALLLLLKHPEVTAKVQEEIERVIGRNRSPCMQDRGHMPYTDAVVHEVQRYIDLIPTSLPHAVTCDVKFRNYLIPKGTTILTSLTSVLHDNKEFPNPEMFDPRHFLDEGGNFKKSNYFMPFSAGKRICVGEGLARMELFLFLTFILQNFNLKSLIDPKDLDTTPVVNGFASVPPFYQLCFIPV
T4 sequence (P11712 whole entry): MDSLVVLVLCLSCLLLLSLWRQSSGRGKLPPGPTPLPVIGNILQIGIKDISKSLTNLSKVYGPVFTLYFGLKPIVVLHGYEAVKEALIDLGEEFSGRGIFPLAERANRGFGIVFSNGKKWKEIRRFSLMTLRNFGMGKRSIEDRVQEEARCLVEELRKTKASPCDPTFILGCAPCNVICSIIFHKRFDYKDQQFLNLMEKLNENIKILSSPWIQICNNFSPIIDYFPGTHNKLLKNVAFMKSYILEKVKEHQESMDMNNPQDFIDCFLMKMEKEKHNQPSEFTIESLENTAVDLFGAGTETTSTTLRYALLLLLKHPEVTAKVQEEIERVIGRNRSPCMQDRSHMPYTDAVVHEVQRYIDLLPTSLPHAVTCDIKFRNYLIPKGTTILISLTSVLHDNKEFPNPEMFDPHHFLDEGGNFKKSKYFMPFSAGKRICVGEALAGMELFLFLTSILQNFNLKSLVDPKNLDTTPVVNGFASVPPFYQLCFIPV
T5 sequence (P10635 whole entry): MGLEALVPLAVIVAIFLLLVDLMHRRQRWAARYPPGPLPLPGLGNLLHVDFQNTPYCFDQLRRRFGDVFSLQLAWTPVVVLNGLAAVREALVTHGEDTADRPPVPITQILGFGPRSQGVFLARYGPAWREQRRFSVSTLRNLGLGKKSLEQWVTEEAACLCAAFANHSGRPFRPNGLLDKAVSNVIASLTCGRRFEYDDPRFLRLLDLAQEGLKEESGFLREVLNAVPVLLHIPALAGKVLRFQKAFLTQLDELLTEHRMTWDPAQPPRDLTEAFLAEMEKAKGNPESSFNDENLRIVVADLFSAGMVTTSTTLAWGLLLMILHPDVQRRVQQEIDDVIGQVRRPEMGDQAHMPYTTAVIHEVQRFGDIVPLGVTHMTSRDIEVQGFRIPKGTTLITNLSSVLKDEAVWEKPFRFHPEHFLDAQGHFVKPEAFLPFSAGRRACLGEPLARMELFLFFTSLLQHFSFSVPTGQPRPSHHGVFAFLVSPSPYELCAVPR

Cc1c(C)n(Cc2ccc(-c3ccccc3C(=O)O)cc2)c2ccc(C(=O)NC(C)c3ccc(Br)cc3)cc12 (centres unmarked) [2 (SR1824), SR1824, reference compound]
CYP(10 μL, %) 2C19 (CYP 2C19): 32.45% | CYP(10 μL, %) 3A4 (CYP 3A4): 71.88% | CYP(10 μL, %) 1A2 (CYP1A2): 64.12% | CYP(10 μL, %) 2C9 (CYP 2C9): 6.43% | CYP(10 μL, %) 2D6 (CYP 2D6): 68.34%

C[C@H](NC(=O)c1ccc2c(c1)CCCN2Cc1ccc(-c2ccccc2C(=O)O)cc1)c1ccc(C#N)cc1 [Example 14, (S)-4′-((6-((1-(4-cyanophenyl)ethyl)carbamoyl)-3,4-dihydroquinoline-1(2H)-yl)methyl)-[1,1′-biphenyl]-2-caboxylic acid]
Binding assay (1 μLM) [1]: ++ | CYP(10 μL, %) 2C19 (CYP 2C19): 79.96% | CYP(10 μL, %) 3A4 (CYP 3A4): 71.24% | CYP(10 μL, %) 1A2 (CYP1A2): 97.99% | suppression of CYP isozymes 1A2, 2C9, 2C19, and 2D6 compared with SR1664 and SR1824 [2]: less than the compounds of the comparative examples; also recorded: less strongly than the compounds of the Comparative Examples | CYP(10 μL, %) 2C9 (CYP 2C9): 64.28% | CYP(10 μL, %) 2D6 (CYP 2D6): 86.13%

C[C@H](NC(=O)c1ccc2c(c1)CCCN2Cc1ccc(-c2ccccc2C(N)=O)cc1)c1ccc(F)cc1 [Example 36, (S)-1-((2′-carbamoyl-[1,1′-biphenyl]-4-yl)methyl)-N-(1-(4-fluorophenyl)ethyl)-1,2,3,4-tetrahydroquinoline-6-carboxamide]
Binding assay (1 μLM) [1]: +++ | CYP(10 μL, %) 2C19 (CYP 2C19): 52.68% | CYP(10 μL, %) 3A4 (CYP 3A4): 58.18% | CYP(10 μL, %) 1A2 (CYP1A2): 98.84% | suppression of CYP isozymes 1A2, 2C9, 2C19, and 2D6 compared with SR1664 and SR1824 [2]: less than the compounds of the comparative examples; also recorded: less strongly than the compounds of the Comparative Examples | CYP(10 μL, %) 2C9 (CYP 2C9): 51.03% | CYP(10 μL, %) 2D6 (CYP 2D6): 75.73%

C[C@H](NC(=O)c1ccc2c(c1)CCCN2Cc1ccc(-c2ccccc2C(N)=O)cc1)c1ccc2ccccc2c1 [Example 44, (S)-1-((2′-carbamoyl-[1,1′-biphenyl]-4-yl)methyl)-N-(1-(naphthalene-2-yl)ethyl)-1,2,3,4-tetrahydroquinoline-6-carboxamide]
Binding assay (1 μLM) [1]: +++ | CYP(10 μL, %) 2C19 (CYP 2C19): 59.55% | CYP(10 μL, %) 3A4 (CYP 3A4): 70.42% | CYP(10 μL, %) 1A2 (CYP1A2): 94.56% | suppression of CYP isozymes 1A2, 2C9, 2C19, and 2D6 compared with SR1664 and SR1824 [2]: less than the compounds of the comparative examples; also recorded: less strongly than the compounds of the Comparative Examples | CYP(10 μL, %) 2C9 (CYP 2C9): 56.40% | CYP(10 μL, %) 2D6 (CYP 2D6): 97.07%

C[C@H](NC(=O)c1ccc2c(c1)CCCN2Cc1ccc(-c2ccccc2C(=O)[O-])cc1)c1ccc(C#N)cc1.[Na+] [Example 57, sodium (S)-4′-((6-((1-(4-cyanophenyl)ethyl)carbamoyl)-3,4-dihydroquinoline-1(2H)-yl)methyl)-[1,1′-biphenyl]-2-carboxylate]
Binding assay (1 μLM) [1]: +++ | CYP(10 μL, %) 2C19 (CYP 2C19): 75.69% | CYP(10 μL, %) 3A4 (CYP 3A4): 59.17% | CYP(10 μL, %) 1A2 (CYP1A2): 100.32% | suppression of CYP isozymes 1A2, 2C9, 2C19, and 2D6 compared with SR1664 and SR1824 [2]: less than the compounds of the comparative examples; also recorded: less strongly than the compounds of the Comparative Examples | CYP(10 μL, %) 2C9 (CYP 2C9): 58.87% | CYP(10 μL, %) 2D6 (CYP 2D6): 82.59%

C[C@H](NC(=O)c1ccc2c(c1)OCCN2Cc1ccc(-c2ccccc2C(=O)O)cc1)c1ccccc1 [Example 58, (S)-4′-((7-((1-phenylethyl)carbamoyl)-2H-benzo[b][1,4]oxazine-4(3H)-yl)methyl)-[1,1′-biphenyl]-2-carboxylic acid]
Binding assay (1 μLM) [1]: + | CYP(10 μL, %) 2C19 (CYP 2C19): 70.53% | CYP(10 μL, %) 3A4 (CYP 3A4): 56.92% | CYP(10 μL, %) 1A2 (CYP1A2): 100.93% | suppression of CYP isozymes 1A2, 2C9, 2C19, and 2D6 compared with SR1664 and SR1824 [2]: less than the compounds of the comparative examples; also recorded: less strongly than the compounds of the Comparative Examples | CYP(10 μL, %) 2C9 (CYP 2C9): 57.47% | CYP(10 μL, %) 2D6 (CYP 2D6): 55.23%

C[C@H](NC(=O)c1ccc2c(c1)OCCN2Cc1ccc(-c2ccccc2C(=O)O)cc1)c1ccc([N+](=O)[O-])cc1 [Example 60, (S)-4′-((7-((1-(4-nitrophenyl)ethyl)carbamoyl)-2H-benzo[b][1,4]oxazine-4(3H)-yl)methyl)-[1,1′-biphenyl]-2-carboxylic acid]
Binding assay (1 μLM) [1]: ++ | CYP(10 μL, %) 2C19 (CYP 2C19): 69.60% | CYP(10 μL, %) 3A4 (CYP 3A4): 70.64% | CYP(10 μL, %) 1A2 (CYP1A2): 100.63% | suppression of CYP isozymes 1A2, 2C9, 2C19, and 2D6 compared with SR1664 and SR1824 [2]: less than the compounds of the comparative examples; also recorded: less strongly than the compounds of the Comparative Examples | CYP(10 μL, %) 2C9 (CYP 2C9): 80.25% | CYP(10 μL, %) 2D6 (CYP 2D6): 62.27%

C[C@H](NC(=O)c1ccc2c(c1)OCCN2Cc1ccc(-c2ccccc2C(=O)O)c(F)c1)c1ccccc1 [Example 162, (S)-2′-fluoro-4′-((7-((1-phenylethyl)carbamoyl)-2H-benzo[b][1,4]oxazine-4(3H)-yl)methyl)-[1,1′-biphenyl]-2-carboxylic acid]
Binding assay (1 μLM) [1]: +++

C[C@H](NC(=O)c1ccc2c(c1)OCCN2Cc1ccc(-c2ccccc2C(=O)O)c(F)c1)c1ccc2ccccc2c1 [Example 163, (S)-2′-fluoro-4′-((7-((1-(naphthalene-2-yl)ethyl)carbamoyl)-2H-benzo[b][1,4]oxazine-4(3H)-yl)methyl)-[1,1′-biphenyl]-2-carboxylic acid]
Binding assay (1 μLM) [1]: +++

Cc1ccc([C@H](C)NC(=O)c2ccc3c(c2)OCCN3Cc2ccc(-c3ccccc3C(=O)O)c(F)c2)cc1F [Example 164, (S)-2′-fluoro-4′-((7-(((3-fluoro-4-methylphenyl)ethyl)carbamoyl)-2H-benzo[b][1,4]oxazine-4(3)-yl)methyl)-[1,1′-biphenyl]-2-carboxylic acid]
Binding assay (1 μLM) [1]: +++
